# From patent publication US20240174637A1, “DEGRADERS OF GRK2 AND USES THEREOF” (Sonata Therapeutics, Inc., priority 2021, published 2024)
# Where a name gives a salt, the structure may show the parent alone. Read-outs that look alike come from different tables or passages of the source.
# Legend:
# [1] = target: T1, GRK2 (Homo sapiens, UniProt P25098); assay: GRK2 Degradation Assay and Western Blot in PAXF1657 cells; type: cell-based; set-up: endogenous in cells; host or cells: PAXF1657; conditions: for inhibition at 0.3 µM: Conc 0.3 uM; for inhibition at 0.3 µM / inhibition at 1 µM / inhibition at 3 µM: read-out: Degradation Assay - 3 point: Degradation (%); for inhibition at 1 µM: Conc 1 uM; for inhibition at 3 µM: Conc 3 uM; for DC50: PAXF1657, 24 h, read-out: Degradation Assay - Full Dose Response: IC50 (uM) [cell line: PAXF1657, time point: 24 h]
# T1 sequence (P25098 1-689): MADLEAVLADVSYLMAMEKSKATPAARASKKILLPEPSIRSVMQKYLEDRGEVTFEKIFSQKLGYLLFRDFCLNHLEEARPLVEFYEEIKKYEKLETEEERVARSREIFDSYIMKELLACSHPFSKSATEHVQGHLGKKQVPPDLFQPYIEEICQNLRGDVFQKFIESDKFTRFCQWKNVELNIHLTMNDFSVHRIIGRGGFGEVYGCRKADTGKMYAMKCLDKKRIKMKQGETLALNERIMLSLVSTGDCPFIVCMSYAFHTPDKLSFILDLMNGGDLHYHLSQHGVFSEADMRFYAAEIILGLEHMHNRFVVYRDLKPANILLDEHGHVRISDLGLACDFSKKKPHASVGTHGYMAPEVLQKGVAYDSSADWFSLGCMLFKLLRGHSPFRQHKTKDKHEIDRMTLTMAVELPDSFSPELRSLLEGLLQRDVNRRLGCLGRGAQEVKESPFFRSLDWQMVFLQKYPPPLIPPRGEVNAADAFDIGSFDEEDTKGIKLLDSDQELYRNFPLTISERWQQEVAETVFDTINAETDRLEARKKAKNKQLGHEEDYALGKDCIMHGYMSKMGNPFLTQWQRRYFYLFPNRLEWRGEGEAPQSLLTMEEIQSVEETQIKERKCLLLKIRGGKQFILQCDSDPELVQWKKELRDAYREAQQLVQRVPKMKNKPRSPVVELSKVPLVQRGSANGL
# Procedure, shortened: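 PAXF1657 cells grown to 70% confluency, then treated with compounds at 0–10 μM for 6 to 24 h at 37 °C. Lysates in PBS with 1% NP40 run on SDS-PAGE. GRK2 protein detected by western blot with β-actin as loading reference, using ECL chemiluminescence.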
# [2] = tested on: PAXF1657 KO Clone #4; assay: 7-day cellular proliferation assay (CellTiter-Glo), PAXF1657 KO Clone #4; type: cell-based; conditions: proliferation, read-out: GeoMean IC50 (uM) PAXF1657 KO Clone #4
# Procedure, shortened: (§1)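 Read-out is CellTiter-Glo luminescence after 7 days of continuous exposure, with compound re-dosed in fresh medium at day 3. Cells were seeded at 500/well and treated across 30 μM-0.0002 μM (10 points, 0.3% DMSO); baseline viability plates were read at compound addition.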
# [3] = tested on: PAXF1657 EV; assay: 7-day cellular proliferation assay (CellTiter-Glo), PAXF1657 EV; type: cell-based; conditions: proliferation, read-out: GeoMean IC50 (UM) PAXF1657 EV
# Procedure, shortened: as §1
# [4] = target: T1, GRK2; assay: GRK2 Inhibition Assay (TR-FRET, Example 1); type: biochemical
# Protocol: Assay: GRK2 enzyme (1 nM final concentration) was diluted in 25 mM HEPES, 10 mM MgCl2, 2 mM DTT, 0.01% Tween-20, and 1 mM EGTA. Then the GRK2 mixture was added into ProxiPlate-384 white plate and pre-incubated for 30 min with test compounds at room temperature. ATP (7 μM final concentration) and Ulight TopoIIα (50 nM final concentration) were added into the assay plate to initiate the reaction and the mixture was incubated at room temperature for 90 min. Then, Eu anti-TopoIIα (0.12 nM final concentration), BSA (0.01% final concentration), and EDTA (11 mM final concentration) in LANCE assay buffer were added into each well. After 60 min incubation time at room temperature, TR-FRET signal was measured by EnVision plate reader.
# [5] = Table 4, Example 1 assay, read-out: Enzymatic GRK2 IC50: Av IC50 GRK2
SMILES,inhibition at 0.3 µM [1] [%],inhibition at 1 µM [1] [%],inhibition at 3 µM [1] [%],"IC50 [4, 5] [nM]",DC50 [1] [µM],"IC50 ([4]; TR-FRET, 7 μM ATP, read-out: Enzymatic GRK2 Assay: IC50 (nM) (Example 1))",IC50 [2] [µM],IC50 [3] [nM]
"C[C@@H](NC(=O)c1cccc(NCc2nnc(-c3ccncn3)n2C)c1)c1cccc(OCCCCCCOCCN2CCN(c3ccc4c(c3)CN(C3CCC(=O)NC3=O)C4=O)CC2)c1 (stereo partly drawn) [Compound D126, N-((1R)-1-(3-(6-(2-(4-(2-(2,6-dioxopiperidin-3-yl)-1-oxoisoindolin-5-yl)piperazin-1-yl)ethoxy)hexyloxy)phenyl)ethyl)-3-((4-methyl-5-(pyrimidin-4-yl)-4H-1,2,4-triazol-3-yl)methylamino)benzamide]",93.2,94.1,88,4.56,0.04,–,> 30,130
"C[C@@H](NC(=O)c1cccc(NCc2nnc(-c3ccncn3)n2C)c1)c1cccc(C(=O)N2CCC(CN3CCN(c4ccc5c(c4)CN(C4CCC(=O)NC4=O)C5=O)CC3)CC2)c1 (stereo partly drawn) [Compound D122, N-((1R)-1-(3-(4-((4-(2-(2,6-dioxopiperidin-3-yl)-1-oxoisoindolin-5-yl)piperazin-1-yl)methyl)piperidine-1-carbonyl)phenyl)ethyl)-3-((4-methyl-5-(pyrimidin-4-yl)-4H-1,2,4-triazol-3-yl)methylamino)benzamide hydrochloride]",84.9,90.6,92.5,12.3,–,–,> 30,100
"C[C@H](NC(=O)c1cccc(NCc2nnc(-c3ccncn3)n2C)c1)c1ccc(OCCCN2CCN(c3ccc4c(c3)CN(C3CCC(=O)NC3=O)C4=O)CC2)cc1 (stereo partly drawn) [Compound D118, N-((1S)-1-(4-(3-(4-(2-(2,6-dioxopiperidin-3-yl)-1-oxoisoindolin-5-yl)piperazin-1-yl)propoxy)phenyl)ethyl)-3-((4-methyl-5-(pyrimidin-4-yl)-4H-1,2,4-triazol-3-yl)methylamino)benzamide hydrochloride]",-13.1,3.23,5.18,> 1000,–,–,–,–
"C[C@H](NC(=O)c1cccc(NCc2nnc(-c3ccncn3)n2C)c1)c1ccc(OCCCCN2CCN(c3ccc4c(c3)CN(C3CCC(=O)NC3=O)C4=O)CC2)cc1 (stereo partly drawn) [Compound D117, N-((1S)-1-(4-(4-(4-(2-(2,6-dioxopiperidin-3-yl)-1-oxoisoindolin-5-yl)piperazin-1-yl)butoxy)phenyl)ethyl)-3-((4-methyl-5-(pyrimidin-4-yl)-4H-1,2,4-triazol-3-yl)methylamino)benzamide hydrochloride]",12.3,-20.5,-4.97,> 1000,–,–,–,–
"C[C@H](NC(=O)c1cccc(NCc2nnc(-c3ccncn3)n2C)c1)c1cc(OCCCCCCOCCOCCOCCCCCC(=O)Nc2cccc3c2CN(C2CCC(=O)NC2=O)C3=O)ccc1F (stereo partly drawn) [Compound D53, N-((1S)-1-(5-((6-(2-(2-((6-((2-(2,6-dioxopiperidin-3-yl)-1-oxoisoindolin-4-yl)amino)-6-oxohexyl)oxy)ethoxy)ethoxy)hexyl)oxy)-2-fluorophenyl)ethyl)-3-(((4-methyl-5-(pyrimidin-4-yl)-4H-1,2,4-triazol-3-yl)methyl)amino)benzamide]",–,–,–,–,–,100 to 1000,–,–

# Further lines, with some results ahead:
inhibition at 0.3 µM [1] [%],inhibition at 1 µM [1] [%],inhibition at 3 µM [1] [%],"IC50 [4, 5] [nM]",DC50 [1] [µM],"IC50 ([4]; TR-FRET, 7 μM ATP, read-out: Enzymatic GRK2 Assay: IC50 (nM) (Example 1))",SMILES,IC50 [2] [µM],IC50 [3] [nM]
51.6,72.9,81.5,12.1,–,–,"C[C@@H](NC(=O)c1cccc(NCc2nnc(-c3ccncn3)n2C)c1)c1cccc(OCCCCCCOCCOCC(=O)Nc2cccc3c2CN(C2CCC(=O)NC2=O)C3=O)c1 (stereo partly drawn) [Compound D170, N-((1R)-1-(3-((6-(2-(2-((2-(2,6-dioxopiperidin-3-yl)-1-oxoisoindolin-4-yl)amino)-2-oxoethoxy)ethoxy)hexyl)oxy)phenyl)ethyl)-3-(((4-methyl-5-(pyrimidin-4-yl)-4H-1,2,4-triazol-3-yl)methyl)amino)benzamide]",> 30,410
55,78,86,11.8,–,–,"C[C@@H](NC(=O)c1cccc(NCc2nnc(-c3ccncn3)n2C)c1)c1cccc(OCCCCCOCCCOCC(=O)N2CCN(c3ccc4c(c3)CN(C3CCC(=O)NC3=O)C4=O)CC2)c1 (stereo partly drawn) [Compound D181, N-((1R)-1-(3-((5-(3-(2-(4-(2-(2,6-dioxopiperidin-3-yl)-1-oxoisoindolin-5-yl)piperazin-1-yl)-2-oxoethoxy)propoxy)pentyl)oxy)phenyl)ethyl)-3-(((4-methyl-5-(pyrimidin-4-yl)-4H-1,2,4-triazol-3-yl)methyl)amino)benzamide]",> 30,580
13.2,20.9,36.8,10.2,–,–,"C[C@@H](NC(=O)c1cccc(NCc2nnc(-c3ccncn3)n2C)c1)c1ccc(OCC(=O)N2CCN(c3ccc4c(c3)CN(C3CCC(=O)NC3=O)C4=O)CC2)cc1 (stereo partly drawn) [Compound D177, N-((1R)-1-(4-(2-(4-(2-(2,6-dioxopiperidin-3-yl)-1-oxoisoindolin-5-yl)piperazin-1-yl)-2-oxoethoxy)phenyl)ethyl)-3-((4-methyl-5-(pyrimidin-4-yl)-4H-1,2,4-triazol-3-yl)methylamino)benzamide]",> 30,27000
63.6,50.2,28.3,12,–,–,"C[C@@H](NC(=O)c1cccc(NCc2nnc(-c3ccncn3)n2C)c1)c1ccc(OCCN2CCN(c3ccc4c(c3)CN(C3CCC(=O)NC3=O)C4=O)CC2)cc1 (stereo partly drawn) [Compound D174, N-((1R)-1-(4-(2-(4-(2-(2,6-dioxopiperidin-3-yl)-1-oxoisoindolin-5-yl)piperazin-1-yl)ethoxy)phenyl)ethyl)-3-((4-methyl-5-(pyrimidin-4-yl)-4H-1,2,4-triazol-3-yl)methylamino)benzamide hydrochloride]",> 30,< 0.458
82.2,84.2,84.3,23.7,0.06,–,"C[C@@H](NC(=O)c1cccc(NCc2nnc(-c3ccncn3)n2C)c1)c1cccc(OCCCCCCOCCOCCN2CCN(c3ccc4c(c3)CN(C3CCC(=O)NC3=O)C4=O)CC2)c1 (stereo partly drawn) [Compound D135, N-((1R)-1-(3-(6-(2-(2-(4-(2-(2,6-dioxopiperidin-3-yl)-1-oxoisoindolin-5-yl)piperazin-1-yl)ethoxy)ethoxy)hexyloxy)phenyl)ethyl)-3-((4-methyl-5-(pyrimidin-4-yl)-4H-1,2,4-triazol-3-yl)methylamino)benzamide]",–,–
64.1,82.6,86.7,29.9,0.29,–,"C[C@@H](NC(=O)c1cccc(NCc2nnc(-c3ccncn3)n2C)c1)c1cccc(OCCCCCCOCCN2CCN(c3cc4c(cc3F)C(=O)N(C3CCC(=O)NC3=O)C4=O)CC2)c1 (stereo partly drawn) [Compound D134, N-((1R)-1-(3-(6-(2-(4-(2-(2,6-dioxopiperidin-3-yl)-6-fluoro-1,3-dioxoisoindolin-5-yl)piperazin-1-yl)ethoxy)hexyloxy)phenyl)ethyl)-3-((4-methyl-5-(pyrimidin-4-yl)-4H-1,2,4-triazol-3-yl)methylamino)benzamide]",–,–
